Consider one molecule from PMC5984089, “FBXW7 regulates DISC1 stability via the ubiquitin-proteosome system” (Molecular Psychiatry, 2017).

Each structure is given as a SMILES string. Residues, ends and D or L forms follow the SMILES beside them. *: point of attachment. Cbz = O=C(OCc1ccccc1)*

For this assay, the system named is DISC1, neural progenitors derived from patients carrying a 4-bp deletion in the DISC1 gene. The assay can be described thus: DISC1 protein level in patient iPS-derived neural progenitors (DISC1 frameshift, 4-bp deletion), western blot. The class given is cell-based, human. From the text: All iPS derived neural progenitors were provided by Pfizer Neuroscience (Cambridge, MA, USA). The iPS cell lines D2 and D3 and family control cell line C1 were generated using a non-integrated approach by Dr Hongjun Song at Johns Hopkins University and cultured as described previously.[8] The Detroit iPS cell line was generated by Dr S. Engle at Pfizer Neuroscience. Detroit 551 fibroblasts were obtained from ATCC (CCL-110) and maintained in Knockout DMEM (Life Technologies 10829-018), 15% FBS (Life Technologies), 1x Non-essential amino acids (Life Technologies 11140-050), 2 mM L-glutamine (Life Technologies 25030-081), 1x Gentamicin (Life Technologies 15710-072), 0.1 mM β-mercaptoethanol (Sigma M-7522). The cells were reprogrammed with individual lentiviruses expressing c-MYC, KLF4, SOX2, OCT3/4, NANOG, and LIN28. One colony, Detroit 551-3, with ES-like morphology, high expression of pluripotency markers (for example, OCT3/4, TRA-1-60, TRA-1-81, SSEA4), a normal karyotype, […] the ability to form all three germ layers in a teratoma assay was used in all subsequent experiments. […]
In general terms: Immunoblotting shows a protein as a band on a membrane.

As to `CC(C)C[C@@H](C=O)NC(=O)[C@H](CC(C)C)NC(=O)[C@H](CC(C)C)NC(=O)OCc1ccccc1` [MG132] (Cbz-Leu-Leu-Leu-aldehyde), the “DISC1 protein level in NPs from D2-1 (patient) iPS cells, proteasomal inhibition” value (MG132 10 µM, day 18, up to 3 hours, n=2, western blot) is on record as “stabilization of DISC1 protein levels within first 30 min up to 3 hours”. Further, the “DISC1 level in patient-derived NP cells after MG132” value (MG132, Supplementary Figure 10D) was “could be enhanced by MG132 treatment”.
